Measured values from PubChem BioAssay AID248 (DTP/NCI, 2004).
“And” between values parts separate entries of the source, which are not always exact repeats. Equal values may be shown once. Toxic doses and inconclusive results are not listed. Rule as the data show it: active = T/C of 150% or more; inactive = T/C below 125%.

Tested on: L1210 leukemia ip in BDF1 mice, survival T/C
Assay: NCI In Vivo Anticancer Drug Screen. Data for tumor model L1210 Leukemia (intraperitoneal) in B6D2F1 (BDF1) mice
Conditions: higher = longer survival
Method: The antitumor activity of compounds was measured in mice bearing transplantable tumors. Survival or tumor size were measured and the results are expressed as the measurement made in the treated group (T) divided by the measurement made in the vehicle treated control group (C). The tumor model used in this assay is L1210 Leukemia (intraperitoneal) in B6D2F1 (BDF1) mice

[1] = endpoint: mean survival time, dose: 100.0 mg/kg/injection, schedule: Q04DX003 (ip), vehicle: saline with Tween-80
[2] = endpoint: mean survival time, dose: 100.0 mg/kg/injection, schedule: Q01DX009 (ip), vehicle: saline with Tween-80
[3] = endpoint: mean survival time, dose: 200.0 mg/kg/injection, schedule: Q01DX009 (ip), vehicle: saline with Tween-80
[4] = endpoint: mean survival time, dose: 200.0 mg/kg/injection, schedule: Q04DX003 (ip), vehicle: saline with Tween-80
[5] = endpoint: mean survival time, dose: 400.0 mg/kg/injection, schedule: Q01DX009 (ip), vehicle: saline with Tween-80
[6] = endpoint: mean survival time, dose: 400.0 mg/kg/injection, schedule: Q04DX003 (ip), vehicle: saline with Tween-80
[7] = endpoint: mean survival time, dose: 100.0 mg/kg/injection, schedule: Q01DX009 (ip), vehicle: Klucel (hydroxypropylcellulose) (HPC)
[8] = endpoint: mean survival time, dose: 100.0 mg/kg/injection, schedule: Q04DX003 (ip), vehicle: Klucel (hydroxypropylcellulose) (HPC)
[9] = endpoint: mean survival time, dose: 100.0 mg/kg/injection, schedule: Q01DX001 (ip), vehicle: saline
[10] = endpoint: mean survival time, dose: 200.0 mg/kg/injection, schedule: Q01DX001 (ip), vehicle: saline
[11] = endpoint: mean survival time, dose: 400.0 mg/kg/injection, schedule: Q01DX001 (ip), vehicle: saline
[12] = endpoint: mean survival time, dose: 200.0 mg/kg/injection, schedule: Q01DX009 (ip), vehicle: Klucel (hydroxypropylcellulose) (HPC)
[13] = endpoint: mean survival time, dose: 200.0 mg/kg/injection, schedule: Q04DX003 (ip), vehicle: Klucel (hydroxypropylcellulose) (HPC)
[14] = endpoint: mean survival time, dose: 400.0 mg/kg/injection, schedule: Q04DX003 (ip), vehicle: Klucel (hydroxypropylcellulose) (HPC)
[15] = endpoint: mean survival time, dose: 100.0 mg/kg/injection, schedule: Q04DX003 (ip), vehicle: saline
[16] = endpoint: mean survival time, dose: 200.0 mg/kg/injection, schedule: Q04DX003 (ip), vehicle: saline
[17] = endpoint: mean survival time, dose: 400.0 mg/kg/injection, schedule: Q04DX003 (ip), vehicle: saline
[18] = endpoint: mean survival time, dose: 50.0 mg/kg/injection, schedule: Q01DX009 (ip), vehicle: saline with Tween-80

Measured: T/C

S=c1[nH]c2ccc(Cl)cc2[nH]1
inactive: endpoint: mean survival time, dose: 25.0 mg/kg/injection, schedule: Q04DX003 (ip), vehicle: saline with Tween-80 100 % of control | endpoint: mean survival time, dose: 50.0 mg/kg/injection, schedule: Q04DX003 (ip), vehicle: saline with Tween-80 98 % of control | [1] 100 % of control

Cc1c(Cl)cccc1NC(=O)Nc1ccc(S(N)(=O)=O)cc1
inactive: [2] 93 % of control and 97 % of control | endpoint: mean survival time, dose: 100.0 mg/kg/injection, schedule: Q04DX002 (ip), vehicle: saline with Tween-80 101 % of control and 110 % of control | [1] 100 % of control | [3] 104 % of control and 105 % of control | endpoint: mean survival time, dose: 200.0 mg/kg/injection, schedule: Q04DX002 (ip), vehicle: saline with Tween-80 101 % of control and 104 % of control | [4] 95 % of control | [5] 93 % of control and 101 % of control | endpoint: mean survival time, dose: 400.0 mg/kg/injection, schedule: Q04DX002 (ip), vehicle: saline with Tween-80 93 % of control and 95 % of control | [6] 92 % of control

O=C(NC1CCCCC1)Sc1ccc(Cl)cc1
inactive: endpoint: mean survival time, dose: 25.0 mg/kg/injection, schedule: Q01DX009 (ip), vehicle: Klucel (hydroxypropylcellulose) (HPC) 104 % of control | endpoint: mean survival time, dose: 25.0 mg/kg/injection, schedule: Q04DX003 (ip), vehicle: Klucel (hydroxypropylcellulose) (HPC) 94 % of control | endpoint: mean survival time, dose: 50.0 mg/kg/injection, schedule: Q01DX009 (ip), vehicle: Klucel (hydroxypropylcellulose) (HPC) 103 % of control | endpoint: mean survival time, dose: 50.0 mg/kg/injection, schedule: Q04DX003 (ip), vehicle: Klucel (hydroxypropylcellulose) (HPC) 102 % of control | [7] 98 % of control | [8] 100 % of control and 108 % of control

O=S(=O)(Cc1ccccc1)C(Cl)c1ccccc1 (stereo not given)
inactive: [9] 115 % of control | [10] 101 % of control | [11] 89 % of control

Cc1cccc(C)c1NC(=O)C(Cl)Cl
inactive: endpoint: mean survival time, dose: 50.0 mg/kg/injection, schedule: Q01DX Z (ip), vehicle: methylcellulose (MC) 109 % of control | endpoint: mean survival time, dose: 73.0 mg/kg/injection, schedule: Q01DX Z (ip), vehicle: methylcellulose (MC) 107 % of control | endpoint: mean survival time, dose: 112.0 mg/kg/injection, schedule: Q01DX Z (ip), vehicle: methylcellulose (MC) 101 % of control | endpoint: mean survival time, dose: 168.0 mg/kg/injection, schedule: Q01DX Z (ip), vehicle: methylcellulose (MC) 101 % of control

CN(C)c1ccc(C=Nc2ccc(/C=C3\C=Cc4ccccc43)cc2)cc1
inactive: endpoint: mean survival time, dose: 50.0 mg/kg/injection, schedule: Q01DX001 (ip), vehicle: carboxymethylcellulose (CMC) 91 % of control | endpoint: mean survival time, dose: 100.0 mg/kg/injection, schedule: Q01DX001 (ip), vehicle: carboxymethylcellulose (CMC) 93 % of control | endpoint: mean survival time, dose: 200.0 mg/kg/injection, schedule: Q01DX001 (ip), vehicle: carboxymethylcellulose (CMC) 96 % of control | endpoint: mean survival time, dose: 400.0 mg/kg/injection, schedule: Q01DX001 (ip), vehicle: carboxymethylcellulose (CMC) 96 % of control

CC1(CCBr)NC(=O)NC1=O (stereo not given)
inactive: [7] 121 % of control | [8] 98 % of control | [12] 101 % of control | [13] 119 % of control | endpoint: mean survival time, dose: 400.0 mg/kg/injection, schedule: Q01DX009 (ip), vehicle: Klucel (hydroxypropylcellulose) (HPC) 95 % of control | [14] 107 % of control

COC1(c2ccccc2)ON=C(c2ccccc2)C=C1c1ccccc1 (stereo not given)
inactive: [15] 93 % of control | [16] 91 % of control | [17] 99 % of control

CCCOC(=O)Nc1cccc(OC(=O)NC)c1
inactive: [1] 105 % of control | [4] 94 % of control | [6] 96 % of control

O=C(Nc1ccccc1F)OCCc1ccccn1
inactive: endpoint: mean survival time, dose: 100.0 mg/kg/injection, schedule: Q04DX002 (ip), vehicle: Klucel (hydroxypropylcellulose) (HPC) 102 % of control | endpoint: mean survival time, dose: 200.0 mg/kg/injection, schedule: Q04DX002 (ip), vehicle: Klucel (hydroxypropylcellulose) (HPC) 105 % of control | endpoint: mean survival time, dose: 400.0 mg/kg/injection, schedule: Q04DX002 (ip), vehicle: Klucel (hydroxypropylcellulose) (HPC) 91 % of control

Clc1ccc2nc(/C=C/c3ccccc3)ccc2c1
inactive: endpoint: mean survival time, dose: 100.0 mg/kg/injection, schedule: Q01DX001 (ip), vehicle: other 95 % of control | endpoint: mean survival time, dose: 200.0 mg/kg/injection, schedule: Q01DX001 (ip), vehicle: other 104 % of control | endpoint: mean survival time, dose: 400.0 mg/kg/injection, schedule: Q01DX001 (ip), vehicle: other 98 % of control

COc1cccc(C)c1[N+](=O)[O-]
inactive: [8] 94 % of control | [13] 97 % of control | [14] 105 % of control

CC(=O)OC1=CCCCC1c1ccccc1 (stereo not given)
inactive: [2] 103 % of control | [1] 98 % of control | [3] 111 % of control | [4] 98 % of control | [5] 103 % of control | [6] 109 % of control

O=C(N/N=C/c1ccccc1F)c1ccc(Cl)cc1
inactive: [18] 96 % of control | [2] 96 % of control | [3] 96 % of control

CC/C(=C(\CC)c1ccc(OCCOS(=O)(=O)c2ccccc2)cc1)c1ccc(OCCOS(=O)(=O)c2ccccc2)cc1
inactive: endpoint: mean survival time, dose: 12.5 mg/kg/injection, schedule: Q04DX002 (ip), vehicle: saline 101 % of control | endpoint: mean survival time, dose: 25.0 mg/kg/injection, schedule: Q04DX002 (ip), vehicle: saline 101 % of control | endpoint: mean survival time, dose: 50.0 mg/kg/injection, schedule: Q04DX002 (ip), vehicle: saline 101 % of control

CC(SC(C)C(=O)NN)C(=O)NN (stereo not given)
inactive: endpoint: mean survival time, dose: 50.0 mg/kg/injection, schedule: Q01DX001 (ip), vehicle: saline 102 % of control | [9] 107 % of control | [10] 105 % of control | endpoint: mean survival time, dose: 200.0 mg/kg/injection, schedule: Q01DX Z (ip), vehicle: carboxymethylcellulose (CMC) 94 % of control | endpoint: mean survival time, dose: 296.0 mg/kg/injection, schedule: Q01DX Z (ip), vehicle: methylcellulose (MC) 98 % of control | endpoint: mean survival time, dose: 370.0 mg/kg/injection, schedule: Q01DX Z (ip), vehicle: methylcellulose (MC) 104 % of control | [11] 100 % of control | endpoint: mean survival time, dose: 400.0 mg/kg/injection, schedule: Q01DX Z (ip), vehicle: carboxymethylcellulose (CMC) 97 % of control | endpoint: mean survival time, dose: 555.0 mg/kg/injection, schedule: Q01DX Z (ip), vehicle: methylcellulose (MC) 110 % of control | endpoint: mean survival time, dose: 800.0 mg/kg/injection, schedule: Q01DX Z (ip), vehicle: carboxymethylcellulose (CMC) 111 % of control | endpoint: mean survival time, dose: 833.0 mg/kg/injection, schedule: Q01DX Z (ip), vehicle: methylcellulose (MC) 119 % of control

Cc1cccc[n+]1Cc1cc(=O)[nH]c(=O)[nH]1
inactive: [15] 101 % of control | [16] 98 % of control | [17] 98 % of control

CC(C)(NC(=O)NCCCl)c1ccccc1
inactive: [9] 96 % of control

COC(=O)CC1CCS(=O)(=O)C1 (stereo not given)
inactive: [2] 101 % of control | [3] 103 % of control | [5] 95 % of control

OCC(O)C(O)C(O)C(O)CNC(CO)(CO)CO (stereo not given)
inactive: endpoint: mean survival time, dose: 100.0 mg/kg/injection, schedule: Q04DX002 (ip), vehicle: saline 104 % of control | endpoint: mean survival time, dose: 200.0 mg/kg/injection, schedule: Q04DX002 (ip), vehicle: saline 88 % of control | endpoint: mean survival time, dose: 400.0 mg/kg/injection, schedule: Q04DX002 (ip), vehicle: saline 95 % of control

CCOC(=O)c1cnc(SC)nc1Nc1cccc(OC)c1
inactive: [8] 108 % of control | [13] 110 % of control | [14] 101 % of control

CCCCCCC(=O)CCCCCC/C=C/CC(O)C(O)C(N)(CO)C(=O)O (stereo not given)
inactive: endpoint: mean survival time, dose: 0.78 mg/kg/injection, schedule: Q04DX002 (ip), vehicle: saline with Tween-80 104 % of control | endpoint: mean survival time, dose: 1.56 mg/kg/injection, schedule: Q04DX002 (ip), vehicle: saline with Tween-80 104 % of control | endpoint: mean survival time, dose: 3.13 mg/kg/injection, schedule: Q04DX002 (ip), vehicle: saline with Tween-80 100 % of control

c1c(N2CC2)cc(N2CC2)cc1N1CC1
inactive: endpoint: median survival time, dose: 100.0 mg/kg/injection, schedule: Q01DX009 (ip), vehicle: Klucel (hydroxypropylcellulose) (HPC) 108 % of control | endpoint: median survival time, dose: 200.0 mg/kg/injection, schedule: Q01DX009 (ip), vehicle: Klucel (hydroxypropylcellulose) (HPC) 97 % of control | endpoint: median survival time, dose: 400.0 mg/kg/injection, schedule: Q01DX009 (ip), vehicle: Klucel (hydroxypropylcellulose) (HPC) 92 % of control

BrC(Br)(c1ccccc1)C1OCCO1
inactive: [18] 100 % of control | [2] 106 % of control | [3] 93 % of control

CCC(CO)Nc1nc2ccc([N+](=O)[O-])cc2c2ccccc12 (stereo not given)
inactive: [7] 103 % of control | [8] 94 % of control | [12] 111 % of control | [13] 102 % of control | [14] 102 % of control
